# Data: paper PMC4571170 (ACS Central Science, 2015)
# Key:
# [1] = target: T1, RNase A (Bos taurus, UniProt P61823); assay: Glycan array screening for RNase A ligands; format: binding, cow; conditions: printed glycan array, Figure 1
# T1 sequence (P61823 27-150): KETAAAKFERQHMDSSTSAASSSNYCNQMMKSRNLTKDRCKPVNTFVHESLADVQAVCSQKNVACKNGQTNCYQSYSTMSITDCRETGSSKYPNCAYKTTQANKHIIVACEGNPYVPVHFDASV
# [2] = system: human leukemia cells; conditions: read-out: IC50 (cytotoxicity), ref [6],[15]; cited from earlier work
Molecule,binding of RNase A to glycan in the array (in words) [1],IC50 [2] [µM]
GalNAcβ1–3Galα1–4Galβ1–4GlcNAc [glycan 90],did bind,–
"CC(=O)NC1C(OC2C(O)C(CO)OC(OC3C(CO)OC(OC4C(CO)OC(O)C(O)C4O)C(O)C3O)C2O)OC(CO)C(O)C1OC1OC(CO)C(O)C(O)C1O (stereo not shown) [glycan 127, Galβ1–3GalNAcβ1–3Galα1–4Galβ1–4Glc]",little affinity,–
"DRRRD RNase 1: RI-evasive cytotoxic variant of RNase 1 (R39D/N67R/N88R/G89R/R91D) (protein, UniProt P07998 29-156, looked up, variant R39D N67R N88R G89R R91D) Ribonuclease pancreatic: KESRAKKFQRQHMDSDSSPSSSSTYCNQMMRRRNMTQGDCKPVNTFVHEPLVDVQNVCFQEKVTCKRGQGNCYKSNSSMHITDCRLTRRSDYPNCAYRTSPKERHIIVACEGSPYVPVHFDASVEDST",–,10.8
"RNase A (G88R): RI-evasive cytotoxic G88R variant of RNase A (protein, UniProt P61823 27-150, looked up, variant G88R) Ribonuclease pancreatic: KETAAAKFERQHMDSSTSAASSSNYCNQMMKSRNLTKDRCKPVNTFVHESLADVQAVCSQKNVACKNGQTNCYQSYSTMSITDCRETRSSKYPNCAYKTTQANKHIIVACEGNPYVPVHFDASV",–,6.2
